According to ChEMBL document CHEMBL5303304, “EUbOPEN Chemogenomics Library - IncuCyte” (2023):

What was measured:
Assay type in all cases: toxicity, cell-based
U2OS = assay: Incucyte cell viability with U2OS; settings: human, 10 µM, compound concentration 10 uM
Fibroblast = assay: Incucyte cell viability with human fibroblast; settings: 10 µM, compound concentration 10 uM
HEK-293T = assay: Incucyte cell viability with HEK293T; settings: human, 10 µM, compound concentration 10 uM
Note: unitless GR value; below 1 slowed growth and below 0 cell loss.

Row | Structure (SMILES) | Growth Rate (U2OS; 0 h, replicate number 1) | Growth Rate (U2OS; 18 h, replicate number 1) | Growth Rate (Fibroblast; 6 h, replicate number 2) | Growth Rate (Fibroblast; 12 h, replicate number 2) | Growth Rate (Fibroblast; 18 h, replicate number 1) | Growth Rate (Fibroblast; 18 h, replicate number 2) | Growth Rate (Fibroblast; 24 h, replicate number 2) | Growth Rate (HEK-293T; 6 h, replicate number 1) | Growth Rate (HEK-293T; 12 h, replicate number 1) | Growth Rate (HEK-293T; 18 h, replicate number 1) | Growth Rate (Fibroblast; 12 h, replicate number 1) | Growth Rate (HEK-293T; 12 h, replicate number 2) | Growth Rate (HEK-293T; 24 h, replicate number 1) | Growth Rate (HEK-293T; 24 h, replicate number 2) | Growth Rate (U2OS; 12 h, replicate number 2) | Growth Rate (U2OS; 18 h, replicate number 2) | Growth Rate (U2OS; 24 h, replicate number 2) | Growth Rate (Fibroblast; 6 h, replicate number 1) | Growth Rate (HEK-293T; 6 h, replicate number 2) | Growth Rate (HEK-293T; 18 h, replicate number 2) | further results
1 | CN(CC(=O)Nc1ccc(F)c(F)c1F)C(=O)c1ccc2c(c1)OCCO2 | -0.71 | 0.76 | 0.54 | 0.55 | 0.79 | 0.78 | 0.87 | 0.37 | 0.74 | 0.93 |  |  |  |  |  |  |  |  |  |  | Growth Rate (U2OS; 6 h, replicate number 1): 0.07; Growth Rate (U2OS; 12 h, replicate number 1): 0.45; Growth Rate (U2OS; 24 h, replicate number 1): 0.95
2 | O=S(=O)(Nc1ccc(C(O)(C(F)(F)F)C(F)(F)F)cc1)c1cccs1 | -0.75 | 0.7 | 0.87 |  | 0.89 | 0.93 | 0.87 | 0.89 |  | 0.88 | 0.76 | 0.89 | 0.87 | 0.9 |  |  |  |  |  |  | Growth Rate (U2OS; 0 h, replicate number 2): 0.65; Growth Rate (U2OS; 6 h, replicate number 1): 0.58; Growth Rate (U2OS; 12 h, replicate number 1): 0.46; Growth Rate (U2OS; 24 h, replicate number 1): 0.8; Growth Rate (Fibroblast; 0 h, replicate number 2): 0.56
3 | CN(C)C/C=C/C(=O)Nc1cccc(C(=O)Nc2ccc(Nc3nccc(-c4cccnc4)n3)cc2)c1 | -0.34 | 0.46 | 0.47 | -0.34 |  | -0.31 | -0.26 | -0.88 | -0.9 | -0.74 |  | -0.52 | -0.55 | -0.37 | 0.74 | 0.42 | 0.13 | -1 | -0.56 | -0.44 | Growth Rate (U2OS; 12 h, replicate number 1): 0.85; Growth Rate (U2OS; 24 h, replicate number 1): 0.27; Growth Rate (Fibroblast; 0 h, replicate number 2): 0.35; Growth Rate (HEK-293T; 0 h, replicate number 2): 0.56
4 | CNC(=O)c1c[nH]c2ccc(Nc3nccc(-c4ccccn4)n3)cc12 | 0.13 | 0.95 | 0.18 | 0.41 |  | 0.6 | 0.75 | 0.28 | 0.33 | 0.33 | 0.8 | 0.1 | 0.39 | 0.17 |  |  | 0.94 |  | 0.09 | 0.14 | Growth Rate (Fibroblast; 0 h, replicate number 1): -1
5 | C/C=C1\C(=O)CC2C3CCC4=CC(=O)CC[C@]4(C)C3CC[C@]12C (stereo partly drawn) | 0.15 | 0.92 | 0.33 | 0.88 | 0.64 | 0.96 | 0.9 | 0.43 | 0.69 | 0.83 | 0.83 | 0.92 | 0.84 |  |  |  |  | -0.19 | 0.44 |  | Growth Rate (U2OS; 6 h, replicate number 1): 0.52; Growth Rate (U2OS; 12 h, replicate number 1): 0.73; Growth Rate (Fibroblast; 24 h, replicate number 1): 0.81
6 | CCn1ccc(Nc2ncc3c(n2)-c2c(nn(C)c2-c2ccc(-c4cnn(C)c4)cc2Cl)CC3)n1 | -1 | 0.27 |  | 0.65 | 0.32 | 0.5 | 0.19 | -0.49 | -0.39 | -0.28 | 0.87 | -0.54 | -0.24 | -0.33 | 0.22 | 0.13 | -0.03 | 0.64 | -0.71 | -0.43 | Growth Rate (U2OS; 6 h, replicate number 2): 0.57; Growth Rate (U2OS; 24 h, replicate number 1): 0.21; Growth Rate (Fibroblast; 0 h, replicate number 1): -1; Growth Rate (Fibroblast; 24 h, replicate number 1): 0.46
7 | C=CC(=O)Nc1cccc(C)c1Nc1ncc2cc(-c3c(Cl)c(OC)cc(OC)c3Cl)ccc2n1 | -0.45 | 0.32 | -0.2 | 0.44 | 0.03 | 0.44 | 0.33 | -0.39 | -0.35 | -0.32 | 0.12 | -0.45 | -0.21 | -0.26 | 0.5 | 0.42 | 0.4 | -0.64 | -0.56 | -0.41 | Growth Rate (U2OS; 0 h, replicate number 2): 0.38; Growth Rate (U2OS; 6 h, replicate number 1): 0.45; Growth Rate (U2OS; 6 h, replicate number 2): 0.31; Growth Rate (U2OS; 12 h, replicate number 1): 0.25; Growth Rate (U2OS; 24 h, replicate number 1): 0.38; Growth Rate (Fibroblast; 24 h, replicate number 1): 0.05
8 | CCOC(=O)c1ccc(N2C(=O)C(O)=C(C(=O)c3ccc(OC)cc3)C2c2ccc(F)cc2)cc1 (stereo not drawn) | 0.54 | 0.96 |  |  | -0.29 |  |  | 0.75 |  |  | -1 |  |  | 0.85 | 0.89 | 1 | 0.74 | 0.14 |  | 0.83 | Growth Rate (U2OS; 0 h, replicate number 2): 0.5; Growth Rate (U2OS; 6 h, replicate number 2): 0.87; Growth Rate (Fibroblast; 0 h, replicate number 2): -0.75; Growth Rate (HEK-293T; 0 h, replicate number 2): 0.85
9 | CN(C(=O)c1ccccc1)c1ccc2c(c1)nc(NC(=O)c1ccc(Br)s1)n2CCC(N)=O | -1 | 0.9 |  |  |  |  |  | 0.09 | 0.33 | 0.34 |  | 0.26 | 0.4 | 0.34 | 0.72 | 0.71 | 0.68 |  | 0.04 | 0.3 | Growth Rate (U2OS; 6 h, replicate number 2): 0.89; Growth Rate (Fibroblast; 0 h, replicate number 1): -0.8; Growth Rate (Fibroblast; 0 h, replicate number 2): -0.39; Growth Rate (Fibroblast; 24 h, replicate number 1): 0.96
10 | CC[C@](C)(O)C#Cc1cc2c(ccn2-c2cc(OC)nc(N)n2)cn1 |  |  |  |  | 0.63 |  | 0.83 | -0.14 | 0.4 | 0.76 | -1 |  | 0.84 |  |  |  |  | -0.12 | 0.55 |  | Growth Rate (U2OS; 0 h, replicate number 2): -0.28; Growth Rate (Fibroblast; 0 h, replicate number 1): -0.3; Growth Rate (HEK-293T; 0 h, replicate number 2): 0.37
11 | CN(C)CCCNc1ccnc(Nc2cccc(Cl)c2)n1 | -1 |  | 0 | 0.34 | 0.67 | 0.45 | 0.38 | -0.38 | -0.19 | -0.03 | 0.88 | -0.09 | 0.02 | 0.29 | 0.65 | 0.64 | 0.47 | 0.3 |  | 0.04 | Growth Rate (U2OS; 6 h, replicate number 1): -0.98; Growth Rate (U2OS; 6 h, replicate number 2): 0.82; Growth Rate (Fibroblast; 0 h, replicate number 1): -0.99; Growth Rate (Fibroblast; 0 h, replicate number 2): 0.25; Growth Rate (Fibroblast; 24 h, replicate number 1): 0.56
12 | Cc1cc(C2CCCNC2)ccc1Nc1ncc(Br)c(NCc2cccc3c2C(C)(C)C(=O)N3)n1 (stereo not drawn) | -0.95 | 0.88 |  | 0.81 | 0.61 | 0.49 | 0.32 | 0.39 | 0.08 | 0.07 |  | 0.09 | -0.01 | 0.13 | 0.61 | 0.46 | 0.37 |  | 0.05 | 0.12 | Growth Rate (U2OS; 6 h, replicate number 2): 0.86; Growth Rate (U2OS; 24 h, replicate number 1): 0.8; Growth Rate (Fibroblast; 24 h, replicate number 1): 0.34
13 | COCCN1CCN(CCn2ccc(Nc3ncc4c(n3)-c3c(nn(C)c3-c3ccccc3)C[C@H]4C)n2)CC1 |  | 0.7 | 0.5 | 0.24 | 0.37 | 0.31 | 0.41 | -0.53 | -0.36 | -0.28 | 0.47 | -0.33 | -0.17 | -0.22 | -0.9 | -0.83 | 0.5 | 0.35 | -0.51 | -0.32 | Growth Rate (U2OS; 6 h, replicate number 1): 0.91; Growth Rate (U2OS; 6 h, replicate number 2): 0.25; Growth Rate (U2OS; 12 h, replicate number 1): -0.73; Growth Rate (U2OS; 24 h, replicate number 1): 0.85; Growth Rate (Fibroblast; 0 h, replicate number 2): 0.9; Growth Rate (Fibroblast; 24 h, replicate number 1): 0.52
